Results taken from patent EP3495350B1, “COMPOUND INHIBITING FORMATION OF C-MYC/MAX/DNA COMPLEX” (National Cancer Center, priority 2016, dated 2018).

How the values were obtained:
[1] = system: zebrafish; assay: Cardiotoxicity experiment using zebrafish (heart rate, lethality); format: in vivo; conditions: n=10; for Changes in heart rate (%): mean
[2] = Single toxicity test (IV and IP single dose); format: in vivo, Mouse; conditions: 40 mg/kg
[3] = molecular target: recombinant c-Myc/Max; assay: Protein assay: electrophoretic mobility shift assay (EMSA) of DNA binding of c-Myc/Max; format: biochemical
Experimental: Recombinant proteins were prepared as described in the following references: K. C. Jung et al., Fatty Acids, Inhibitors for the DNA Binding of c-Myc/Max Dimer, Suppress Proliferation and Induce Apoptosis of Differentiated HL-60 Human Leukemia Cell, Leukemia, 2006, 20(1), 122-7 or Kyung-Chae Jeong et al., Small-Molecule Inhibitors of c-Myc Transcriptional Factor Suppress Proliferation and Induce Apoptosis of Promyelocytic Leukemia Cell via Cell Cycle Arrest, Mol. BioSyst., 2010, 6, 1503-1509.
The inhibitory activity of each candidate compound on DNA binding of recombinant c-Myc/Max was measured using an electrophoretic mobility shift assay (EMSA). The ratio of protein-DNA complexes in each sample was evaluated by measuring band intensity. The oligonucleotides (E-box, 5'-biotin-[…]-3'-biotin) corresponding to the consensus binding site of Myc/Max were dimerized through an annealing process. The protein mixture was incubated at room temperature for 5 minutes, and a DMSO solution containing each candidate compound was added thereto. The mixture was further incubated for 5 minutes, and the biotinylated DNA was added. To achieve a state of equilibrium, the final mixture was incubated at room temperature for 10 minutes. […] Each band was visualized using HRP-conjugated streptavidin and an ECL solution, and band intensity was measured using image analysis software.

[4] = system: MBT-2; assay: Cell based assay, cell viability (CellTiter-Glo), MBT-2; conditions: 72 hours, 0 to 2 µM; read-out: cell based assay cell line 1 MBT-2 IC50
Experimental: (§1) Commercially available bladder cancer cell lines were treated with trypsin-EDTA and seeded in each well of a 96 well plate, followed by incubation for 24 hours. After incubation, candidate compounds were added to each well at a final concentration of 0 to 2 µM. The compound-treated cells were further incubated for 72 hours. Cell viability was measured using an ATP detection method (CellTiter-Glo Luminescent Cell Viability Assay, Promega).
(§2) The selectivity of the compounds of the present disclosure to cancer cells was evaluated in the same manner as described in "2. Cell based assay".

[5] = system: KU19-19; assay: Cell based assay, cell viability (CellTiter-Glo), KU19-19; conditions: Homo sapiens, KU-19-19; 72 hours, 0 to 2 µM; read-out: cell based assay cell line 2 KU19-19 IC50
Experimental: as §1, §2

[6] = system: 253J; assay: Cell based assay, cell viability (CellTiter-Glo), 253J; conditions: Homo sapiens; 72 hours, 0 to 2 µM; read-out: cell based assay cell line 3 253J IC50
Experimental: as §1, §2

[7] = system: UM-UC-3; assay: Cell based assay, cell viability (CellTiter-Glo), UM-UC-3; conditions: Homo sapiens, UMUC3; 72 hours, 0 to 2 µM; read-out: cell based assay cell line 4 UM-UC-3 IC50
Experimental: as §1, §2

[8] = Cell based assay, cell viability (CellTiter-Glo), RT4 (selectivity); conditions: human, rt4 cells; selectivity evaluation, Table 6; benign; read-out: Cytotoxicity (µM) RT4
Experimental: as §1, with “After incubation, candidate compounds were added to each well at a final concentration of 0 to 2 µM.” left out
as §2

Row | SMILES | IC50 [4] [µM] | IC50 [5] [µM] | IC50 [6] [µM] | IC50 [7] [µM] | further results
1 | COc1ccc(CCN2CCC(Nc3nc4ccccc4n3Cc3ccc(F)cc3)CC2)cc1 [Astemizole, reference compound] | – | – | – | – | Changes in heart rate (%) ([1]; 10 µM): 46.2%; Lethality ([1]; 10 µM): 0/10
2 | CC(=O)c1c([S+]([O-])Cc2ccccc2)nc2c(Br)ccc(Cl)c2c1O (stereo not shown) [Compound 4, 3-acetyl-2-(benzylsulfinyl)-8-bromo-5-chloroquinolin-4(1H)-one] | 0.96 | 1.05 | 1 | 1.33 | deaths ([2]; IV and IP single-dose administration of 40 mpk): no deaths; General symptoms (feed intake, drinking water intake) ([2]; mouse, in vivo): no abnormal symptoms; Weight changes ([2]; mouse, in vivo): no significant weight changes; Percentage ([2]; mouse, in vivo, ip): 0 (0/2); mortality ([2]; mouse, in vivo, ip): 0%; Percentage ([2]; mouse, in vivo, iv): 0 (0/2); mortality ([2]; mouse, in vivo, iv): 0%; Changes in heart rate (%) ([1]; 5 µM): 88.5%; Lethality ([1]; 5 µM): 1/10; IC50 [3]: < 1 µM; CC50 at 72 h [8]: > 10 µM
3 | CC(=O)c1c([S+]([O-])Cc2ccc([N+](=O)[O-])cc2)[nH]c2c(Br)ccc(Cl)c2c1=O (stereo not shown) [Compound 33, 3-acetyl-8-bromo-5-chloro-2-((4-nitrobenzyl)sulfinyl)quinolin-4(1H)-one] | 0.9 | 1.42 | 1.39 | 1.11 | Changes in heart rate (%) ([1]; 5 µM): 97.3%; Lethality ([1]; 5 µM): 0/10; Note (heart rate inhibition) ([1]; 5 µM): No significant heart rate inhibition; CC50 at 72 h [8]: > 10 µM
4 | CC(=O)c1c(S(=O)(=O)Cc2ccccc2)nc2c(Br)ccc(Cl)c2c1O [Compound 54, 1-(2-(benzylsulfonyl)-8-bromo-5-chloro-4-hydroxyquinolin-3-yl)ethan-1-one] | > 2 | > 2 | > 2 | > 2 | IC50 [3]: < 1 µM
5 | CC(=O)c1c([S+]([O-])Cc2ccc(C#N)s2)[nH]c2c(Br)ccc(Cl)c2c1=O (stereo not shown) [Compound 98, 5-(((3-acetyl-8-bromo-5-chloro-4-oxo-1,4-dihydroquinolin-2-yl)sulfinyl)methyl)thiophene-2-carbonitrile] | 0.84 | 1.9 | 1.38 | 1.52 | –
6 | CC(=O)c1c([S+]([O-])Cc2ccc(-n3cccn3)nc2)[nH]c2c(Br)ccc(Cl)c2c1=O (stereo not shown) [Compound 99, 2-(((6-(1H-pyrazol-1-yl)pyridin-3-yl)methyl)sulfinyl)-3-acetyl-8-bromo-5-chloroquinolin-4(1H)-one] | 0.47 | 1.12 | 0.8 | 0.77 | –
7 | CC(=O)c1c([S+]([O-])Cc2ccc(N)nc2)[nH]c2c(Br)ccc(Cl)c2c1=O (stereo not shown) [Compound 100, 3-acetyl-2-(((6-aminopyridin-3-yl)methyl)sulfinyl)-8-bromo-5-chloroquinolin-4(1H)-one] | > 2 | > 2 | > 2 | > 2 | –
8 | O=C(c1c([S+]([O-])Cc2ccc(SC(F)(F)F)cc2)[nH]c2c(Br)ccc(Cl)c2c1=O)C1CC1 (stereo not shown) [Compound 101, 8-bromo-5-chloro-3-(cyclopropanecarbonyl)-2-((4-((trifluoromethyl)thio)benzyl)sulfinyl)quinolin-4(1H)-one] | > 2 | > 2 | 1.82 | 1.93 | –
9 | CC(=O)c1c([S+]([O-])Cc2ccc(C(F)(F)F)nc2C)[nH]c2c(Br)ccc(Cl)c2c1=O (stereo not shown) [Compound 102, 3-acetyl-8-bromo-5-chloro-2-(((2-methyl-6-(trifluoromethyl)pyridin-3-yl)methyl)sulfinyl)quinolin-4(1H)-one] | 0.77 | 1.58 | 0.83 | 1.07 | –
10 | CC(=O)c1c([S+]([O-])Cc2ccc(NS(C)(=O)=O)cc2)[nH]c2c(Br)ccc(Cl)c2c1=O (stereo not shown) [Compound 103, N-(4-(((3-acetyl-8-bromo-5-chloro-4-oxo-1,4-dihydroquinolin-2-yl)sulfinyl)methyl)phenyl)methanesulfonamide] | > 2 | > 2 | > 2 | > 2 | –
11 | CC(=O)c1c([S+]([O-])Cc2ccc(Cl)nc2)[nH]c2c(Br)ccc(Cl)c2c1=O (stereo not shown) [Compound 104, 3-acetyl-8-bromo-5-chloro-2-(((6-chloropyridin-3-yl)methyl)sulfinyl)quinolin-4(1H)-one] | 0.71 | 1.5 | 0.87 | 1.13 | –
12 | COCCNc1ccc(C[S+]([O-])c2[nH]c3c(Br)ccc(Cl)c3c(=O)c2C(C)=O)cn1 (stereo not shown) [Compound 105, 3-acetyl-8-bromo-5-chloro-2-(((6-((2-methoxyethyl)amino)pyridin-3-yl)methyl)sulfinyl)quinolin-4(1H)-one] | > 2 | > 2 | > 2 | > 2 | –
13 | CC(=O)c1c([S+]([O-])Cc2nonc2C)[nH]c2c(Br)ccc(Cl)c2c1=O (stereo not shown) [Compound 106, 3-acetyl-8-bromo-5-chloro-2-(((4-methyl-1,2,5-oxadiazol-3-yl)methyl)sulfinyl)quinolin-4(1H)-one] | > 2 | > 2 | > 2 | > 2 | –
14 | CC(=O)c1c([S+]([O-])Cc2cnc3[nH]ccc3c2)[nH]c2c(Br)ccc(Cl)c2c1=O (stereo not shown) [Compound 107, 2-(((1H-pyrrolo[2,3-b]pyridin-5-yl)methyl)sulfinyl)-3-acetyl-8-bromo-5-chloroquinolin-4(1H)-one] | > 2 | > 2 | > 2 | > 2 | –
